The source of these data is publication PMC3000536 (Tetrahedron letters, 2011).

In general, pIC50 refers to the IC50 on a negative log10 scale, so that one unit is a factor of ten. The low end stands for a large IC50, the high end for a small IC50.

pIC50: −log10 of the molar value. Entries after “also recorded” stand apart in the source; their conditions may differ. A value given as a limit tells only on which side of the number the result lay.

Assay [1] addresses T1, Bovine epididymis α-L-Fucosidase (Bos taurus, UniProt Q2KIM0).
T1 sequence (Q2KIM0 23-468): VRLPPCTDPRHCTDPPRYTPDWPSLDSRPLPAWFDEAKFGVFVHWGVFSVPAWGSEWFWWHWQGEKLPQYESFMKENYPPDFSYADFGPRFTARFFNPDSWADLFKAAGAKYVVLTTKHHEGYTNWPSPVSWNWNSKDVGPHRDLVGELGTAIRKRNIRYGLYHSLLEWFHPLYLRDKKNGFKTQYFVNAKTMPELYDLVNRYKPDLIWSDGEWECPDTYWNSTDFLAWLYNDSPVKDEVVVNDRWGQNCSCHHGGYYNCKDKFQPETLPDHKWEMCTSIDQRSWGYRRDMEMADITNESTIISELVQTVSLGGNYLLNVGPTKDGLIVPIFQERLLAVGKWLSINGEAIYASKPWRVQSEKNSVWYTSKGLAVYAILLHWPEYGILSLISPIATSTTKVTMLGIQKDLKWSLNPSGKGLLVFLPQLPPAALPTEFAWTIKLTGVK
The experiment in a line: Glycosidase inhibition, bovine epididymis α-L-fucosidase. In kind it is biochemical.

Assay [2] concerns the target T2, Rat intestinal cellobiase (Rattus norvegicus, UniProt Q02401).
T2 sequence (Q02401 868-1928): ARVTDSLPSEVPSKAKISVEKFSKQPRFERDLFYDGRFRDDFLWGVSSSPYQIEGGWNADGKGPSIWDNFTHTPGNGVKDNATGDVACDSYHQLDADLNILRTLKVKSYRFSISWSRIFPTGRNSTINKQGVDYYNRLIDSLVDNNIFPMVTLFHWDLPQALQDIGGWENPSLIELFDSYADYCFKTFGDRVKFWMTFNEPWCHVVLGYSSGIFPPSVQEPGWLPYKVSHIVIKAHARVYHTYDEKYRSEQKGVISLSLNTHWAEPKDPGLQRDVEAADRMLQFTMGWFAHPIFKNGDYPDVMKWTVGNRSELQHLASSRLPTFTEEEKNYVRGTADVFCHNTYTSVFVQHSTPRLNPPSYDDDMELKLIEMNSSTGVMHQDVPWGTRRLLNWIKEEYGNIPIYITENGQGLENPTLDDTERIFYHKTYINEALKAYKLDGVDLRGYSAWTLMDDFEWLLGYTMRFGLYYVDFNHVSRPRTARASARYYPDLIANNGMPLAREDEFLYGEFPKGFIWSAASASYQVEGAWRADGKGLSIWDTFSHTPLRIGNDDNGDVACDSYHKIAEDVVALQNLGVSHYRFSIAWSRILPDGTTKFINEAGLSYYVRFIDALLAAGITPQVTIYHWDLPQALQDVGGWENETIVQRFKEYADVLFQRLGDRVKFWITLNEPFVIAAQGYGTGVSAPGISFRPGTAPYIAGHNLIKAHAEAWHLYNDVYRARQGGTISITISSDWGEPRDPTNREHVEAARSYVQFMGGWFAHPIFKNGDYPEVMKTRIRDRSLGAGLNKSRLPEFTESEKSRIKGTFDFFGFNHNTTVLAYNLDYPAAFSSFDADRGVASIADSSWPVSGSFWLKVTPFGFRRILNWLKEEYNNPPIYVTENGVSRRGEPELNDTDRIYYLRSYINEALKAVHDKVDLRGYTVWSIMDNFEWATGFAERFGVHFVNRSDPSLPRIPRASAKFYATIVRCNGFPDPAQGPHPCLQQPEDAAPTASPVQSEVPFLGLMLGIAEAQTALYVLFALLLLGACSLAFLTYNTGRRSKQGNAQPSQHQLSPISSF
Briefly: Glycosidase inhibition, rat intestinal cellobiase. The assay is classed as biochemical.

The target in assay [3] is F508del-CFTR (Homo sapiens, UniProt P13569, DEL508-508). The experiment in a line: CFTR function in CF-KM4 cells by single-cell fluorescence imaging. The assay is classed as cell-based.
In assay [4] the target is Coffee beans α-Galactosidase (Coffea arabica, UniProt Q42656). Briefly: Glycosidase inhibition, coffee beans α-galactosidase. In kind it is biochemical.
Chain of Coffee beans α-Galactosidase (Q42656 16-378): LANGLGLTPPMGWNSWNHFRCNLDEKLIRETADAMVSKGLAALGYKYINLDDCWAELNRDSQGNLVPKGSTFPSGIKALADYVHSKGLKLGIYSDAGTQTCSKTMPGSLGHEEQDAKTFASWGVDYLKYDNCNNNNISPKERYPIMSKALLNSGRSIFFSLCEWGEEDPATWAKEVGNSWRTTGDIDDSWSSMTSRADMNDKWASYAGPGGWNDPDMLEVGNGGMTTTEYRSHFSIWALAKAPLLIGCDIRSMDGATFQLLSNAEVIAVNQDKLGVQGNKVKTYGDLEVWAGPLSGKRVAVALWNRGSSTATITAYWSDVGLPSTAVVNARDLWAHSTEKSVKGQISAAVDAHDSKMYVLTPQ
Another assay deals with T3, Jack beans α-Mannosidase (Canavalia ensiformis, UniProt C0HJB3).
T3 sequence (C0HJB3 1-981): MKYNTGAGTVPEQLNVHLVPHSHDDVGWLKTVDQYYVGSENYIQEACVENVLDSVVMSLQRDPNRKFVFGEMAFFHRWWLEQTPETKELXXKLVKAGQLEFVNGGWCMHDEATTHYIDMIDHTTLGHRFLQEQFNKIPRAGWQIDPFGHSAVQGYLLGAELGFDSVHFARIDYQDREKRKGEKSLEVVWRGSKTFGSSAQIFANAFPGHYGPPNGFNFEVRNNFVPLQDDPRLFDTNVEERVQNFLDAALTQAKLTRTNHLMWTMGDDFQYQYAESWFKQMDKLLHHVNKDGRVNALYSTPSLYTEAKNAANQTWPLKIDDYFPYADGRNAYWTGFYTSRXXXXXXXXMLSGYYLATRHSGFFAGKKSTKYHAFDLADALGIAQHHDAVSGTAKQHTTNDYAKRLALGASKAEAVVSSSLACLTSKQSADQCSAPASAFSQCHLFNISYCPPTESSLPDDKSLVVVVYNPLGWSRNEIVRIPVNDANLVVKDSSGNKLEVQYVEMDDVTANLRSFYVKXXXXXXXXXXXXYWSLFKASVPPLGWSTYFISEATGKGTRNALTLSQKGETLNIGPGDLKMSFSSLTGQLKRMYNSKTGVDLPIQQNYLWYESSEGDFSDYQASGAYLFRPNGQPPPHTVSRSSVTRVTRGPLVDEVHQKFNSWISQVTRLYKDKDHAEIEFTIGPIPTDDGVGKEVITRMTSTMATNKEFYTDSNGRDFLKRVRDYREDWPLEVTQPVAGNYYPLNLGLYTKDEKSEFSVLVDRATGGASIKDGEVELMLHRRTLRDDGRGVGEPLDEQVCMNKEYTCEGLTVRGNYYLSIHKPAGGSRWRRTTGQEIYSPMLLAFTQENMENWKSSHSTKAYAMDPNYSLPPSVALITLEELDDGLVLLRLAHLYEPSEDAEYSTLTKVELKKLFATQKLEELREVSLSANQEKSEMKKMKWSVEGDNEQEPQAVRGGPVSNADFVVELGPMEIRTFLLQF
The experiment in a line: Glycosidase inhibition, jack beans α-mannosidase. In kind it is biochemical.

For the next assay, the system named is ER glucosidases. The settings on record: cited from earlier work.
The test system of assay [5] is F508del-CFTR. The settings on record: ref viii; cited from earlier work.

For `C[C@]1(CO)NC[C@@H](O)[C@@H]1O` [4-C-Me-DAB 1D, 1,4-dideoxy-1,4-imino-4-C-methyl-D-arabinitol], the pIC50 (in assay [1]; in assay [2]; in assay [4]; against Jack beans α-Mannosidase) was under 3.00 each time. Besides, on F508del-CFTR [3], the “Corrector effect on CFTR function” value was “Neither of the 4-C-methyl pyrrolidines 1D and 1L had any corrector effect”.
On to `C[C@@]1(CO)NC[C@H](O)[C@H]1O` [4-C-Me-LAB 1L], for which the pIC50 (in assay [1]; in assay [2]; in assay [4]; against Jack beans α-Mannosidase) was under 3.00 throughout. At F508del-CFTR [3], the “Corrector effect on CFTR function” value is “Neither of the 4-C-methyl pyrrolidines 1D and 1L had any corrector effect”.
`OC[C@@]1(O)CNC[C@H]1O` [isoDAB 2D]: the pIC50 (in assay [1]; in assay [2]; in assay [4]; at Jack beans α-Mannosidase) was under 3.00 throughout.
As to `OC[C@]1(O)CNC[C@@H]1O` [isoLAB 2L], the pIC50 (in assay [1]; in assay [2]; in assay [4]; against Jack beans α-Mannosidase) was under 3.00 in each case. In the assay on ER glucosidases, the “Inhibition of ER glucosidases” value is recorded as “neither of which showed any inhibition”. In the assay with F508del-CFTR [5], the “Rescue of the defective F508del-CFTR function” value is given as “significant rescue; also recorded: partially rescues”.
